This is an account of results in US7767850B2, “S-[2-[(1-iminoethy)amino]ethyl]-2-methyl-L-cysteine maleate hydrochloride crystalline salt” (Pfizer Inc., priority 2003, dated 2010).

One data set can be described thus: physchem. Format: physicochemical. The source says:
S-[2-[(1-Iminoethyl)amino]ethyl]-2-methyl-L-cysteine maleate hydrochloride crystals are birefringent with positive elongation when analyzed by polarized light microscopy.
Examples 7 and 8 only differ in the nature of agitation afforded to the system. […] The bead was agitated with a magnetic plate. […] Both the examples used 2.0 molar equivalents of maleic acid and 0.5 molar equivalent of HCl for each mole of S-[2-[(1-Iminoethyl)amino]ethyl]-2-methyl-L-cysteine. […] In Example 9, the water content of the system was 2.3% before the addition of acetonitrile, while the ratio of acetonitrile to DMF was 1.98 on weight/weight basis.

Data set [1] in a line: Bulk and tapped powder density. Format: physicochemical. The conditions noted are these: orderly packed agglomerates of Example 20. The source says: (§1) Orderly packed agglomerates of S-[2-[(1-Iminoethyl)amino]ethyl]-2-methyl-L-cysteine maleate hydrochloride crystals made in Example 20 were studied to determine its powder characteristics that are relevant to the development of a pharmaceutical composition with S-[2-[(1-Iminoethyl)amino]ethyl]-2-methyl-L-cysteine maleate hydrochloride together with a pharmaceutically acceptable carrier. Before testing, the solids were passed through 80-mesh screen corresponding to 177 micrometer opening in order to fragment some very large loose aggregates of the orderly packed agglomerates. The properties tested included powder flow characteristics, powder particle size distribution, powder bulk and tapped density and powder compressibility and compaction.
Bulk powder density was evaluated as the mass of material within a 50-ml graduated cylinder.

A short description of data set [2]: Moisture sorption study by DVS moisture balance. Type of data set: physicochemical. The conditions noted are these: 25° C., sample of Example 10. The source says: FIG. 4 is a plot of a moisture sorption study of the crystalline S-[2-[(1-Iminoethyl)amino]ethyl]-2-methyl-L-cysteine maleate hydrochloride. […] Between 70 and 9% R.H., another 58% moisture was taken up by the solids. It is presumed that at 90% R.H. the crystal structure was destroyed to produce highly hygroscopic amorphous solids. During the de-sorption cycle (from 90 to 30% R.H.), these solids transformed into a mixture of form II of the crystalline S-[2-[(1-Iminoethyl)amino]ethyl]-2-methyl-L-cysteine maleate and amorphous zwitterion with excess hydrogen chloride. Subsequent de-sorption and re-sorption behavior was very similar to form II of the crystalline S-[2-[(1-Iminoethyl)amino]ethyl]-2-methyl-L-cysteine maleate. Powder x-ray analysis on the solids at the end of the experiment confirmed the presence of both form II the crystalline S-[2-[(1-Iminoethyl)amino]ethyl]-2-methyl-L-cysteine maleate and amorphous solids.

Data set [3] is described as follows: Powder flow, aperture flow tester. Format: physicochemical.
Source text: as §1, with “compaction. Powder flow was evaluated using an aperture flow tester, measured as the smallest opening at which the powder freely flows through. The powder flow test was repeatedly successful through a 6-mm aperture opening. A powder flow of 6-mm is considered good for formulation development of S-[2-[(1-Iminoethyl)amino]ethyl]-2-methyl-L-cysteine maleate hydrochloride crystals. Successful repetition of flow through a narrower 4-mm opening was, however, dependent on how the powder was introduced to the tester.” for “compaction.”

The format of data set [4] is physicochemical. The source says:
Additionally, the presence of excess maleic acid dramatically increases the solubility.
1-Butanol was selected as the best solvent to explore the possibility of utilizing a high boiling solvent that can easily be exchanged with water from the upstream aqueous chromatography purification step. […] This process was again designed to be very similar to the DMF/acetonitrile process. Following is a description of the initial process run at the 1 L scale.

The nature of data set [5]: Direct compression without excipients: tablet hardness and disintegration. The following applies: for tablet hardness: 100-mg compacts, no excipients. Format: physicochemical. The protocol:
The powder was evaluated for direct compression without any excipients. Compacts of 100-mg in weight were manufactured using an 8/32 inch (6.35-mm) round concave tooling. Tablets were compressed at various compression forces and evaluated for strength, thickness and disintegration. […] Relatively strong small tablets ( 8/32 inch), as hard as 11-kP, are possible with compression force between 900 and 1000 kg. Tablet strength reaches an apparent maximum between 900 and 1000 kg compression force. Minor adhesion to the punch and die walls were observed during compression experiments. However, the sticking was considered to be a minor problem and could easily be resolved by using an appropriate lubricant. Tablet disintegration times were also evaluated for compacts of orderly packed agglomerates of S-[2-[(1-Iminoethyl)amino]ethyl]-2-methyl-L-cysteine maleate hydrochloride crystals. Three tablets were compressed with compression forces between 500 and 600, corresponding to 8 kP tablet hardness for this material.

Data set [6] is described as follows: Particle size distribution by sieve analysis. Type of data set: physicochemical.
Source text: as §1
Particle size distribution of the powder was measured using sieve analysis. The mean particle size distribution was calculated using the geometric mean method. […] Only 1.63% of material was considered as fines, less than 75-μm, with more than 90% within 105-250-μm. More than 75% of the material was within 105-150-μm. The tight range in the powder particle size distribution for orderly packed agglomerates is between 100 and 200-μm, which is highly desirable for the development of a pharmaceutical composition with S-[2-[(1-Iminoethyl)amino]ethyl]-2-methyl-L-cysteine maleate hydrochloride together with a pharmaceutically acceptable carrier.

The mark [7] stands for this setting: orderly packed agglomerates of Example 20.

SMILES strings stand for the structures.

Regarding `CC(=N)NCCSC[C@](C)(N)C(=O)O` [S-[2-[(1-Iminoethyl)amino]ethyl]-2-methyl-L-cysteine], the “solubility in water (in words)” value in “physchem” is “highly soluble in water”.
In the case of `CC(=N)NCCSC[C@](C)(N)C(=O)O.Cl.O=C(O)/C=C\C(=O)O` [S-[2-[(1-Iminoethyl)amino]ethyl]-2-methyl-L-cysteine maleate hydrochloride], in data set [1], the bulk powder density amounted to 0.41 g/mL and the tapped density was 0.50 g/mL. Moreover, the moisture uptake result in data set [2] (between 0 and 70% relative humidity) was “approximately 1.5%”. In addition, in data set [2] (between 70 and 9% R.H. as printed), the “further moisture taken up by the solids” value turned out to be 58%. This molecule had a compressibility index in data set [3] (setting [7]) of 17.8%. In addition, the “powder flow, smallest aperture opening at which the powder freely flows through” value in data set [3] (orderly packed agglomerates of Example 20, passed through 80-mesh screen) came to 6 mm. In the data set “physchem”, the “solubility in water (in words)” value was “highly soluble in water”. Besides, the solubility in the data set “physchem” (water) is greater than 150 mg/mL. Further, in data set [4], the “solubility in 1-butanol” value is 0.05 wt % and the solubility in methanol is given as 6.2 wt %. In addition, the tablet hardness in data set [5] (8/32 inch, compression force between 900 and 1000 kg) is no more than 11 kP. The tablet hardness in data set [5] (compression forces between 500 and 600) came to 8 kP. For the same molecule, the tablet disintegration time entry in data set [5] (three tablets, compression forces between 500 and 600, 8 kP hardness) is recorded as “less than 2 minutes”. Also, in data set [6] (setting [7]), the “fraction of fines, less than 75-μm” value is 1.63%; the “fraction of material within 105-150-μm” value is reported as “More than 75%”; the “fraction of material within 105-250-μm” value is “more than 90%”. The molecule also gave a mean particle size in data set [6] (orderly packed agglomerates of Example 20, geometric mean method) of 134 micrometers.

A word on the solubility: it is how much of the substance goes into solution per volume. Read a high solubility as much dissolved substance.
